≈ marks a conversion by molar mass, not a printed value. Each block holds one compound with its values, some of them ahead of it.
What was measured:
Test in all cases: ≥ marks a high value that may be exact or a test limit, other limits are often not marked, values filed in µg/mL are converted to µM
[1] = system: Staphylococcus epidermidis NBRC 12933
[2] = system: Staphylococcus aureus NBRC 12732
[3] = system: Bacillus subtilis NBRC 3513
[4] = system: Bacillus megaterium ATCC 19213
[5] = system: Trichophyton simii J43 IP903-65
[6] = system: Staphylococcus aureus IP76-25
[7] = system: Aspergillus niger IP218-53
[8] = system: Trichophyton rubrum IP2043-92
[9] = system: Nocardia brasiliensis IP16-80
Escherichia coli IP76-24 = system: Escherichia coli IP76-24
[10] = system: Aeromonas caviae IP67-16T
[11] = system: Enterococcus faecalis IP103214
[12] = system: Candida albicans IP884-65
[13] = system: Saccharomyces cerevisiae IP118079
[14] = system: Candida albicans IP886-65
Microsporum canis IP1194 = system: Microsporum canis IP1194
[15] = system: Cryptococcus neoformans IP960-67
[16] = system: Trichophyton mentagrophytes IP877-71
[17] = system: Trichophyton simii IP1063-74
Acinetobacter baumannii = system: Acinetobacter baumannii
[18] = system: Cryptococcus neoformans IP962-67
[19] = system: Aspergillus fumigatus IP1025-70
Saccharomyces cerevisiae = system: Saccharomyces cerevisiae
[20] = system: Shigella dysenteriae ATCC 9752
[21] = system: Salmonella enterica subsp. enterica serovar Typhimurium ATCC 14028
Pseudomonas putida = system: Pseudomonas putida
[22] = system: Bacillus subtilis KCTC 1021
[23] = system: Pseudomonas aeruginosa ATCC 9027
[24] = system: Proteus mirabilis ATCC 25933
[25] = system: Micrococcus luteus ATCC 4698
Candida albicans = system: Candida albicans
[26] = system: Staphylococcus epidermidis ATCC 12228
[27] = system: Klebsiella pneumoniae ATCC 10031
Serratia marcescens = system: Serratia marcescens
Escherichia coli = system: Escherichia coli
[28] = system: Escherichia coli ATCC 25922
[29] = system: Staphylococcus aureus ATCC 25929
[30] = system: Staphylococcus aureus USA 300
[31] = system: Staphylococcus epidermidis ATCC 35984

Compound: CC[C@H](C)[C@H](NC(=O)[C@H](C)N)C(=O)N[C@@H](Cc1ccccc1)C(=O)N[C@H](C(=O)N[C@@H](Cc1ccccc1)C(=O)N[C@H](C(=O)N[C@@H](CCCN=C(N)N)C(=O)N[C@@H](Cc1c[nH]c2ccccc12)C(=O)N[C@@H](CC(C)C)C(=O)N[C@@H](CC(C)C)C(=O)N[C@@H](CCCCN)C(=O)O)[C@@H](C)CC)[C@@H](C)CC [AIFIFIRWLLK]
MIC [1]: ≥ 32 µM
MIC [2]: 16 µM (≈ 22.7 µg/mL)
MIC [3]: ≥ 32 µM
MIC [4]: 16 µM (≈ 22.7 µg/mL)

Compound: CSCC[C@H](NC(=O)[C@H](Cc1c[nH]c2ccccc12)NC(=O)[C@H](CC(C)C)NC(=O)[C@H](C)N)C(=O)N[C@H](C(=O)N[C@@H](CC(C)C)C(=O)N[C@@H](CC(C)C)C(=O)N[C@@H](CCCCN)C(=O)N[C@@H](CCCCN)C(=O)N[C@H](C(=O)N[C@@H](CC(C)C)C(=O)N[C@@H](CCCCN)C(=O)N[C@@H](C)C(=O)N[C@@H](C)C(=O)N[C@@H](C)C(=O)N[C@@H](CCCCN)C(=O)N[C@@H](C)C(=O)N[C@@H](CC(C)C)C(=O)N[C@@H](CC(N)=O)C(=O)N[C@@H](C)C(=O)N[C@H](C(=O)N[C@@H](CC(C)C)C(=O)N[C@H](C(=O)NCC(=O)N[C@@H](C)C(=O)N[C@@H](CC(N)=O)C(=O)N[C@@H](C)C(=O)O)C(C)C)C(C)C)C(C)C)[C@@H](C)O [ALWMTLLKKVLKAAAKALNAVLVGANA]
MIC [5]: 20 µM (≈ 55.6 µg/mL)
MIC [6]: 10 µM (≈ 27.8 µg/mL)
MIC [7]: 30 µM (≈ 83.4 µg/mL)
MIC [8]: ≥ 40 µM
MIC [9]: 10 µM (≈ 27.8 µg/mL)
MIC (Escherichia coli IP76-24): 4 µM (≈ 11.1 µg/mL)
MIC [10]: 0.5 µM (≈ 1.39 µg/mL)
MIC [11]: 20 µM (≈ 55.6 µg/mL)
MIC [12]: 20 µM (≈ 55.6 µg/mL)
MIC [13]: 20 µM (≈ 55.6 µg/mL)
MIC [14]: 20 µM (≈ 55.6 µg/mL)
MIC (Microsporum canis IP1194): 15 µM (≈ 41.7 µg/mL)
MIC [15]: 2 µM (≈ 5.56 µg/mL)
MIC [16]: 20 µM (≈ 55.6 µg/mL)
MIC [17]: 30 µM (≈ 83.4 µg/mL)
MIC (Acinetobacter baumannii): 4.5 µM (≈ 12.5 µg/mL)
MIC [18]: 1 µM (≈ 2.78 µg/mL)
MIC [19]: 20 µM (≈ 55.6 µg/mL)

Compound: CC[C@H](C)[C@H](NC(=O)CN)C(=O)N[C@@H](CCSC)C(=O)N[C@@H](CO)C(=O)N[C@H](C(=O)N[C@H](C(=O)N[C@@H](CCCCN)C(=O)N[C@@H](CC(=O)O)C(=O)N[C@H](C(=O)N[C@@H](C)C(=O)N[C@@H](CCCCN)C(=O)N[C@@H](CC(N)=O)C(=O)N[C@@H](C)C(=O)N[C@@H](C)C(=O)N[C@@H](CCCCN)C(=O)N[C@@H](CCC(=O)O)C(=O)N[C@@H](C)C(=O)N[C@@H](C)C(=O)N[C@@H](CCCCN)C(=O)NCC(=O)N[C@@H](C)C(=O)N[C@@H](CC(C)C)C(=O)N[C@@H](CO)C(=O)N[C@H](C(=O)N[C@@H](CC(C)C)C(=O)N[C@@H](CO)C(=O)N[C@H]1CSSC[C@@H](C(=O)O)NC(=O)[C@H]([C@@H](C)O)NC(=O)[C@H](CCCCN)NC(=O)[C@H](C)NC(=O)[C@H](CC(C)C)NC(=O)[C@H](CCCCN)NC1=O)[C@@H](C)O)C(C)C)C(C)C)[C@@H](C)CC [GIMSIVKDVAKNAAKEAAKGALSTLSCKLAKTC]
MIC (Saccharomyces cerevisiae): ≥ 45.2 µM
MIC [20]: 7.53 µM (≈ 25 µg/mL)
MIC [21]: 45.2 µM (≈ 150 µg/mL)
MIC (Pseudomonas putida): 15.1 µM (≈ 50 µg/mL)
MIC [22]: 3.01 µM (≈ 9.99 µg/mL)
MIC [23]: 15.1 µM (≈ 50 µg/mL)
MIC [24]: ≥ 60.2 µM
MIC [25]: 0.753 µM (≈ 2.5 µg/mL)
MIC (Candida albicans): 45.2 µM (≈ 150 µg/mL)
MIC [26]: 3.01 µM (≈ 9.99 µg/mL)
MIC [27]: 7.53 µM (≈ 25 µg/mL)
MIC (Serratia marcescens): ≥ 60.2 µM
MIC (Escherichia coli): 22.6 µM (≈ 75 µg/mL)

Now from value to compound:

MIC [28]: 16 µM (≈ 31.5 µg/mL)
MIC [29]: 8 µM (≈ 15.8 µg/mL)
Compound: CC(C)C[C@H](NC(=O)[C@H](CC(C)C)NC(=O)[C@@H](NC(=O)[C@@H]1CCCN1C(=O)[C@H](CCCCN)NC(=O)[C@@H](N)[C@@H](C)O)[C@@H](C)O)C(=O)NCC(=O)N[C@@H](CC(C)C)C(=O)N1CCC[C@H]1C(=O)N[C@@H](CC(C)C)C(=O)NCC(=O)N[C@@H](C)C(=O)NCC(=O)N1CCC[C@H]1C(=O)N[C@@H](C)C(=O)N[C@@H](C)C(=O)NCC(=O)N1CCC[C@H]1C(=O)NCC(=O)N[C@@H](CCCCN)C(=O)N[C@@H](CCCN=C(N)N)C(N)=O [TKPTLLGLPLGAGPAAGPGKR]

MIC [30]: ≥ 64 µM
MIC [31]: ≥ 64 µM
Compound: CC[C@H](C)[C@H](NC(=O)[C@H](C)NC(=O)[C@H](CCCCN)NC(=O)[C@@H](NC(=O)[C@@H](NC(=O)[C@H](CCCCN)NC(=O)[C@@H](NC(=O)[C@@H](NC(=O)[C@@H](NC(=O)CNC(=O)[C@@H](N)C(C)C)[C@@H](C)O)[C@@H](C)CC)[C@@H](C)CC)[C@@H](C)CC)[C@@H](C)CC)C(=O)N[C@H](C(=O)N[C@@H](CC(=O)O)C(=O)N[C@H](C(=O)N[C@@H](Cc1ccccc1)C(=O)N[C@@H](C)C(=O)N[C@@H](CCCCN)C(=O)O)[C@@H](C)CC)[C@@H](C)CC [VGTIIKIIKAIIDIFAK]
